Data from PMC6272242, “Topical Anti-inflammatory Activity of New Hybrid Molecules of Terpenes and Synthetic Drugs” (Molecules, 2015).

Experiments:
[1] = system: mice ear edema induced by arachidonic acid; test: Topical anti-inflammatory effect, arachidonic acid (AA) induced ear edema in mice; type: in vivo; conditions: 3.2 µmol/mouse; for % TAAA ± SEM (percent reduction of the ear edema, arachidonic acid) / inhibition in vivo at 3.2 µmol/animal: 1 h after AA; for % TAAA ± SEM (percent reduction of the ear edema, arachidonic acid): n = 8; for inhibition in vivo at 3.2 µmol/animal: n = 8, read-out: % TAAA ± SEM (percent reduction of the ear edema, arachidonic acid)
Procedure: (§1) The inflammatory agent arachidonic acid (AA) and phorbol 12-myristate 13-acetate (TPA) were used to assess the anti-inflammatory effect/action mechanism of the starting compounds, new synthetic products and reference drugs. […] Adult male CF-1 mice (20–25 g), obtained from a stock maintained at the Chilean Public Health Institute, were used to assess the anti-inflammatory effect. All animals were housed in a climate- and light-controlled room with a 12 h light-dark cycle, fasted overnight before the day of the assays, with free access to water. The anti-inflammatory activity of each compound was evaluated in groups of 8 treated and 16 control mice. Due to ethical considerations, the number of animals was kept to a minimum and single dose experiments were carried out.
(§2) The pro-inflammatory agents TPA and AA, the reference drugs indomethacin and nimesulide were from Sigma. […] After 5 min, inflammation was induced by the application of 20 µL TPA or AA (5 mg/mL) in acetone. […] Control subjects only received TPA or AA. Both, the sample and the TPA or AA, were applied to the inner (10 µL) and outer (10 µL) surfaces of the right ear. The left ear only received acetone. Mice were sacrificed by cervical dislocation (after 6 h of TPA and 1 h AA), and a 6 mm diameter section of the right and left ears were cut and weighed. The weight differences between both ear sections correspond to the edema value. The percent topical anti-inflammatory activity (TA) was evaluated according to the following equation: (1) %TA=[ Wc−Ws/Wc]× 100 where Wc and Ws are the different median values of the weights of the right and the left ear sections of the control and the treated animals, respectively.
(§3) For the animal experiments all values are presented as median ± SEM. Drug-induced changes were statistically estimated using the Kruskall-Wallis test for comparison between groups and testing, and the Mann-Whitney test was used in the independent data for individual comparisons. The effects were considered significant if p ≤ 0.05. For cytotoxicity experiments, each concentration was tested in quadruplicate together with the control and repeated three times in different experiments. Results are expressed as IC50 values (µM) ± S.D.

[2] = system: mice ear edema induced by 12-O-tetradecanoylphorbol 13-acetate; test: Topical anti-inflammatory effect, 12-O-tetradecanoylphorbol 13-acetate (TPA) induced ear edema in mice; type: in vivo; conditions: 1.4 µmol/mouse; for % TATPA ± SEM (percent reduction of the ear edema, TPA) / inhibition in vivo at 1.4 µmol/animal: 6 h after TPA; for % TATPA ± SEM (percent reduction of the ear edema, TPA): n = 8; for inhibition in vivo at 1.4 µmol/animal: n = 8, read-out: % TATPA ± SEM (percent reduction of the ear edema, TPA)
Procedure: as §1, §2, §3

lung fibroblasts (MRC-5) = test: Cytotoxicity, MTT reduction assay, MRC-5; type: cell-based; conditions: Homo sapiens, MRC5, confluent cultures, 24 h, read-out: IC50 ± SD, MRC-5
Procedure: (§4) The human cell lines, MRC-5 normal lung fibroblasts (CCL-171), AGS gastric epithelial adenocarcinoma cells (CRL-1739) and HepG2 hepatocellular carcinoma cells (HB-8065) were obtained from the American Type Culture Collection (ATCC, Manasas, VA, USA). The cells were grown as monolayers in the following media: MRC-5 and HepG2 in MEM and AGS in Ham F-12. The MEM medium contained 2 mM L-glutamine, 1 mM sodium pyruvate and 1.5 g/L sodium bicarbonate. Ham F-12 was supplemented with 2 mM L-glutamine and 1.5 g/L sodium bicarbonate. Both media were supplemented with 10% heat inactivated fetal bovine serum, 100 IU/mL penicillin and 100 µg/mL streptomycin in a humidified incubator with 5% CO2 in air at 37 °C. For the experiments, cells were plated at a density of 25,000 cells/mL in 96-well plates. […] Compounds were first dissolved in DMSO and then in medium. The final concentration of DMSO in the test medium and controls was 1%. […] The cell viability for each compound was calculated comparing the cell viability of the untreated controls (100%) with the cell viability of the different concentrations of each compound. Each concentration was tested in quadruplicate together with the control and repeated three times in separate experiments. Cell viability was determined at the end of the incubation by means of the MTT reduction assay. Results were converted to percentage of controls, and the IC50 values were graphically obtained from the dose-response curves. Culture media, antibiotics and fetal bovine serum were obtained from Invitrogen Corp. (Waltham, MA, USA). Other reagents were purchased from Sigma Chemical Co. For the animal experiments all values are presented as median ± SEM. Drug-induced changes were statistically estimated using the Kruskall-Wallis test for comparison between groups and testing, and the Mann-Whitney test was used in the independent data for individual comparisons. The effects were considered significant if p ≤ 0.05. For cytotoxicity experiments, each concentration was tested in quadruplicate together with the control and repeated three times in different experiments. Results are expressed as IC50 values (µM) ± S.D.

[3] = system: gastric epithelial cells (AGS); test: Cytotoxicity, MTT reduction assay, AGS; type: cell-based; conditions: Homo sapiens, Epithelial cell, confluent cultures, 24 h, read-out: IC50 ± SD, AGS
Procedure: as §4

hepatocytes HepG2 = test: Cytotoxicity, MTT reduction assay, HepG2; type: cell-based; conditions: Homo sapiens, confluent cultures, 24 h, read-out: IC50 ± SD, HepG2
Procedure: as §4, with “Results were converted to percentage of controls, and the IC50 values were graphically obtained from the dose-response curves.” left out

[4] = system: human lung fibroblasts (MRC-5), gastric epithelial cells (AGS) and hepatocytes HepG2; test: Cytotoxicity, MTT reduction assay, summary over the three cell lines; type: cell-based; conditions: for IC50: Homo sapiens, MRC-5, AGS and HepG2, 24 h, MTT, read-out: IC50 values, range over the three cell lines
Procedure: as §4

CC(C)Cc1ccc([C@H](C)C(=O)O[C@H]2CC[C@@]3(C)C(CC[C@]4(C)C3CC=C3C5CC(C)(C)CC[C@]5(C(=O)O)CC[C@]34C)C2(C)C)cc1 (mixture of isomers) [Compound 12, Oleanoyl ibuprofenate]
Activity in the AA model, in words [1]: significant effect
% TAAA ± SEM (percent reduction of the ear edema, arachidonic acid) [1]: 56.8 ± 7.4 %
inhibition in vivo at 3.2 µmol/animal [1]: 56.8%
% TATPA ± SEM (percent reduction of the ear edema, TPA) [2]: 79.9 ± 10.6 %
inhibition in vivo at 1.4 µmol/animal [2]: 79.9%
IC50 (lung fibroblasts (MRC-5)): 616 ± 32 µM
IC50 [3]: 526 ± 19 µM
IC50 (hepatocytes HepG2): > 1000 µM

COc1ccc2c(c1)c(CC(=O)O)c(C)n2C(=O)c1ccc(Cl)cc1 [Indomethacin, reference compound]
% TATPA ± SEM (percent reduction of the ear edema, TPA) [2]: ↑92.9 ± 13.2 %
inhibition in vivo at 1.4 µmol/animal [2]: 92.9%

C=C1CCC2[C@](C)(CCC[C@]2(C)C(=O)O)[C@H]1CC[C@@H](C)CCOC(=O)[C@@H](C)c1ccc(CC(C)C)cc1 (mixture of isomers) [Compound 8, Imbricatol-15-yl ibuprofenate]
inhibition in vivo at 3.2 µmol/animal [1]: 10 ± 6%
inhibition in vivo at 1.4 µmol/animal [2]: 40.3 ± 2.4%
IC50 (lung fibroblasts (MRC-5)): 34 ± 2 µM
IC50 [3]: 23 ± 1 µM
IC50 (hepatocytes HepG2): 79 ± 8 µM
IC50 [4]: 23 to 79 µM

COc1ccc2cc([C@H](C)C(=O)O)ccc2c1 [Compound 5, naproxen, reference compound]
Activity in the AA model, in words [1]: inactive
inhibition in vivo at 1.4 µmol/animal [2]: 29.9 ± 6.2%
IC50 (lung fibroblasts (MRC-5)): > 1000 µM
IC50 [3]: > 1000 µM

COc1ccc2cc([C@H](C)C(=O)O[C@H]3CC[C@@]4(C)C(CC[C@]5(C)C4CC=C4C6CC(C)(C)CC[C@]6(C(=O)O)CC[C@]45C)C3(C)C)ccc2c1 (stereo partly shown) [Compound 14, Oleanoyl naproxenate]
inhibition in vivo at 3.2 µmol/animal [1]: 9 ± 11.3%
inhibition in vivo at 1.4 µmol/animal [2]: 55.5 ± 5.1%
IC50 (lung fibroblasts (MRC-5)): 554 ± 22 µM
IC50 [3]: 486 ± 26 µM
IC50 (hepatocytes HepG2): > 1000 µM

C=C1CCC2[C@](C)(CCC[C@]2(C)C(=O)O)[C@H]1CC[C@@H](C)CCOC(=O)[C@@H](C)c1ccc2cc(OC)ccc2c1 (stereo partly shown) [Compound 10, Imbricatol-15-yl naproxenate]
inhibition in vivo at 3.2 µmol/animal [1]: 16.3 ± 3.8%
inhibition in vivo at 1.4 µmol/animal [2]: 37.7 ± 3.3%
IC50 (lung fibroblasts (MRC-5)): 37 ± 2 µM
IC50 [3]: 29 ± 2 µM
IC50 (hepatocytes HepG2): 69 ± 4 µM
IC50 [4]: 29 to 69 µM

CC(C)c1cc2c(cc1O)[C@@]1(C)CCCC(C)(C)[C@@H]1CC2 [Compound 1, ferruginol, reference compound]
% TAAA ± SEM (percent reduction of the ear edema, arachidonic acid) [1]: 21.0 ± 2.1 *^,a %
inhibition in vivo at 3.2 µmol/animal [1]: 21 ± 2.1%
% TATPA ± SEM (percent reduction of the ear edema, TPA) [2]: 20.4 ± 3.1 *^,a %
inhibition in vivo at 1.4 µmol/animal [2]: 20.4 ± 3.1%
IC50 (lung fibroblasts (MRC-5)): 31 ± 2 µM
IC50 [3]: 29 ± 1 µM
IC50 (hepatocytes HepG2): 39 ± 3 µM
IC50 [4]: 29 to 39 µM
Cytotoxic effect, in words ([4]; MRC-5, AGS and HepG2): strong

C=C1CCC2[C@](C)(CCC[C@]2(C)C(=O)OC)[C@H]1CC[C@@H](C)CCOC(=O)[C@@H](C)c1ccc2cc(OC)ccc2c1 (stereo partly shown) [Compound 11, Imbricatol-15-yl naproxenate methyl ester]
inhibition in vivo at 3.2 µmol/animal [1]: 20 ± 9.4%
inhibition in vivo at 1.4 µmol/animal [2]: 42.7 ± 8.3%
IC50 (lung fibroblasts (MRC-5)): 907 ± 54 µM
IC50 [3]: 601 ± 25 µM
IC50 (hepatocytes HepG2): > 1000 µM
IC50 [4]: ≥ 601 µM

CS(=O)(=O)Nc1ccc([N+](=O)[O-])cc1Oc1ccccc1 [Nimesulide, reference compound]
% TAAA ± SEM (percent reduction of the ear edema, arachidonic acid) [1]: ↑48.9 ± 5.5 %
inhibition in vivo at 3.2 µmol/animal [1]: 48.9%

COC(=O)[C@]12CCC(C)(C)CC1C1=CCC3[C@@]4(C)CC[C@H](OC(=O)[C@@H](C)c5ccc(CC(C)C)cc5)C(C)(C)C4CC[C@@]3(C)[C@]1(C)CC2 (mixture of isomers) [Compound 13, Oleanoyl ibuprofenate methyl ester]
inhibition in vivo at 3.2 µmol/animal [1]: 19.5 ± 9.2%
inhibition in vivo at 1.4 µmol/animal [2]: 47.4 ± 2.6%
IC50 (lung fibroblasts (MRC-5)): 402 ± 20 µM
IC50 [3]: 454 ± 21 µM
IC50 (hepatocytes HepG2): 742 ± 48 µM

C=C1CCC2[C@](C)(CCC[C@]2(C)C(=O)OC)[C@H]1CC[C@@H](C)CCOC(=O)[C@@H](C)c1ccc(CC(C)C)cc1 (mixture of isomers) [Compound 9, Imbricatol-15-yl ibuprofenate methyl ester]
inhibition in vivo at 3.2 µmol/animal [1]: 14.9 ± 7.4%
inhibition in vivo at 1.4 µmol/animal [2]: 41.2 ± 6.2%
IC50 (lung fibroblasts (MRC-5)): 706 ± 35 µM
IC50 [3]: 623 ± 39 µM
IC50 (hepatocytes HepG2): 746 ± 38 µM
IC50 [4]: ≥ 601 µM

COc1cc([C@@H]2c3cc4c(cc3[C@@H](O[C@@H]3O[C@@H]5CO[C@@H](C)O[C@H]5[C@H](O)[C@H]3O)[C@H]3COC(=O)[C@H]23)OCO4)cc(OC)c1O [Etoposide, reference compound]
IC50 (lung fibroblasts (MRC-5)): 3.9 ± 0.1 µM
IC50 [3]: 0.36 ± 0.02 µM
IC50 (hepatocytes HepG2): 2.4 ± 0.1 µM

COC(=O)[C@]12CCC(C)(C)CC1C1=CCC3[C@@]4(C)CC[C@H](OC(=O)[C@@H](C)c5ccc6cc(OC)ccc6c5)C(C)(C)C4CC[C@@]3(C)[C@]1(C)CC2 (stereo partly shown) [Compound 15, Oleanoyl naproxenate methyl ester]
inhibition in vivo at 3.2 µmol/animal [1]: 2.7 ± 8.1%
% TATPA ± SEM (percent reduction of the ear edema, TPA) [2]: 80.0 ± 11.0 %
inhibition in vivo at 1.4 µmol/animal [2]: 80%
IC50 (lung fibroblasts (MRC-5)): 816 ± 42 µM
IC50 [3]: 593 ± 31 µM
IC50 (hepatocytes HepG2): > 1000 µM

CC1(C)CC[C@]2(C(=O)O)CC[C@]3(C)C(=CC[C@@H]4[C@@]5(C)CC[C@H](O)C(C)(C)[C@@H]5CC[C@]43C)[C@@H]2C1 [Compound 3, oleanolic acid, reference compound]
Activity in the AA model, in words [1]: inactive
inhibition in vivo at 3.2 µmol/animal [1]: 2.7 ± 7.5%
Activity in the TPA assay, in words [2]: active
% TATPA ± SEM (percent reduction of the ear edema, TPA) [2]: 70.2 ± 8.3 *^,a %
inhibition in vivo at 1.4 µmol/animal [2]: 70.2 ± 8.3%
IC50 (lung fibroblasts (MRC-5)): 186 ± 9 µM
IC50 [3]: 234 ± 16 µM
IC50 (hepatocytes HepG2): 170 ± 5 µM
